Measurements taken from patent US20060030616A1, “Anhydride modified cantharidin analogues useful in the treatment of cancer” (priority 1998, published 2006).
Where two headings read alike, the source gives them in different places.

Columns and labels:
HCT116 cells = test: Checkpoint abrogation after 6 Gy radiation, flow cytometry; format: cell-based, human; conditions: 12 h after drug
Experimental: (§1) The cells are fixed in 70% ethanol and stored at −20° C. until analysis is performed (1-2 weeks). After fixing, the cells are pelleted and incubated in PBS containing propidium iodide ([…]) and RNase A (200 mg/ml) for at least 30 min at room temperature. The samples (2×10^4 events) are analysed using a Becton Dickson FACScan, fluorescence is collected in fluorescence detector 2 (FL2), filter 575/30 nm band pass. Cell cycle distribution is assessed using Cell Quest software (Becton Dickson).
(§2) The ability of the protein phosphatase inhibitors to abrogate the G1 or G2 checkpoint of the cell cycle may be determined by cell cycle analysis using flow cytometry. Briefly, asynchronous cell cultures are harvested 18 h after 6 Gy irradiation and/or 12 h incubation with the protein phosphatase inhibitor. Depending upon the p53 status of the cell line, radiation treatment alone will induce arrest in either G1 and/or G2 phase of the cell cycle.
(§3) If the protein phosphatase inhibitor abrogates the G2 checkpoint then the cells will not arrest in the G2 phase of the cell cycle and the cells will continue through the cell cycle and accumulate in the G1 phase of the cell cycle only. Similarily if the protein phosphatase inhibitors abrogates the G1 checkpoint then the cells will not arrest in the G1 phase of the cell cycle and accumulate in the G2 phase of the cell cycle only. Cell cycle analysis using propidium iodide labelling of DNA has been used extensively in our laboratory to assess the effect of specific anticancer agents that induce S-phase cell cycle arrest and apoptotic cell death (Sakoff, Ackland and Stewart, 1998). Experiments were performed on a Becton Dickinson FACScan and using Cell Quest software.
(§4) The cells were treated with 6 Gy of radiation and then treated with cantharidin 6 h later. The ability to abrogate cell cycle arrest was assessed is 12 h after the addition of the drugs.

HT29 cells = test: as above; format: cell-based, human; conditions: 12 h after drug
Experimental: as §1, §2, §3, §4

HL60 cells = test: as above; format: cell-based, human; conditions: 12 h after drug
Experimental: as §1, §2, §3, §4

L1210 cells = test: as above; format: cell-based, murine; conditions: 12 h after drug
Experimental: as §1, §2, §3, §4

nine cancer cell lines = test: MTT cytotoxicity assay, 72 h, ranges over cell line panel; format: cell-based
Method in brief: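 Absorbance at 540 nm of solubilized MTT formazan measures viable cells after 72 h inhibitor exposure. Cells are plated 24 h ahead to reach exponential growth, with L1210 at 1000 cells/well. IC50 comes from the dose-response of growth between day 0 and day 3.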

For `O=C1OC(O)C2C3CCC(O3)C12` (stereo not drawn) [MK-4], the “Cell Cycle Distribution, G1” value (HCT116 cells; HCT116, 50 μM, 18 h after 6Gy) was 26.7 percentage of total, the “Cell Cycle Distribution, G2 + M” value (HCT116 cells; HCT116, 50 μM, 18 h after 6Gy) was 61.3 percentage of total and the “Cell Cycle Distribution, S” value (HCT116 cells; HCT116, 50 μM, 18 h after 6Gy) was 5.8 percentage of total. The “Cell Cycle Distribution, sub G” value (HCT116 cells; HCT116, 50 μM, 18 h after 6Gy) was 6.3 percentage of total, the “Cell Cycle Distribution, G1” value (HCT116 cells; HCT116, 100 μM, 18 h after 6Gy) was 18.4 percentage of total and the “Cell Cycle Distribution, G2 + M” value (HCT116 cells; HCT116, 100 μM, 18 h after 6Gy) was 69.3 percentage of total. For the same compound, the “Cell Cycle Distribution, S” value (HCT116 cells; HCT116, 100 μM, 18 h after 6Gy) was 9.7 percentage of total, the “Cell Cycle Distribution, sub G” value (HCT116 cells; HCT116, 100 μM, 18 h after 6Gy) was 3.3 percentage of total and the “Cell Cycle Distribution, G1” value (HCT116 cells; HCT116, 250 μM, 18 h after 6Gy) was 16.3 percentage of total. The “Cell Cycle Distribution, G2 + M” value (HCT116 cells; HCT116, 250 μM, 18 h after 6Gy) was 67.8 percentage of total, the “Cell Cycle Distribution, S” value (HCT116 cells; HCT116, 250 μM, 18 h after 6Gy) was 8.2 percentage of total and the “Cell Cycle Distribution, sub G” value (HCT116 cells; HCT116, 250 μM, 18 h after 6Gy) was 8.2 percentage of total. For the same compound, the “Cell Cycle Distribution, G1” value (HCT116 cells; HCT116, 500 μM, 18 h after 6Gy) was 13.1 percentage of total, the “Cell Cycle Distribution, G2 + M” value (HCT116 cells; HCT116, 500 μM, 18 h after 6Gy) was 61.9 percentage of total and the “Cell Cycle Distribution, S” value (HCT116 cells; HCT116, 500 μM, 18 h after 6Gy) was 10.6 percentage of total. For the same compound, the “Cell Cycle Distribution, sub G” value (HCT116 cells; HCT116, 500 μM, 18 h after 6Gy) was 14.9 percentage of total, the Checkpoint remark (HCT116 cells; HCT116, 500 μM, 18 h after 6Gy) was “G1 abrogation” and the “Checkpoint abrogation” value (HCT116 cells; HCT116, 6 Gy) was “abrogated G1 arrest”. For the same compound, the “Cell Cycle Distribution, G1” value (HT29 cells; HT29, 50 μM, 18 h after 6Gy) was 28.9 percentage of total, the “Cell Cycle Distribution, G2 + M” value (HT29 cells; HT29, 50 μM, 18 h after 6Gy) was 48.4 percentage of total and the “Cell Cycle Distribution, S” value (HT29 cells; HT29, 50 μM, 18 h after 6Gy) was 16.4 percentage of total. For the same compound, the “Cell Cycle Distribution, sub G” value (HT29 cells; HT29, 50 μM, 18 h after 6Gy) was 6.8 percentage of total, the “Cell Cycle Distribution, G1” value (HT29 cells; HT29, 100 μM, 18 h after 6Gy) was 33.3 percentage of total and the “Cell Cycle Distribution, G2 + M” value (HT29 cells; HT29, 100 μM, 18 h after 6Gy) was 43.3 percentage of total. The “Cell Cycle Distribution, S” value (HT29 cells; HT29, 100 μM, 18 h after 6Gy) was 17.2 percentage of total, the “Cell Cycle Distribution, sub G” value (HT29 cells; HT29, 100 μM, 18 h after 6Gy) was 6.3 percentage of total and the “Cell Cycle Distribution, G1” value (HT29 cells; HT29, 250 μM, 18 h after 6Gy) was 35.2 percentage of total. For the same compound, the “Cell Cycle Distribution, G2 + M” value (HT29 cells; HT29, 250 μM, 18 h after 6Gy) was 36.5 percentage of total, the “Cell Cycle Distribution, S” value (HT29 cells; HT29, 250 μM, 18 h after 6Gy) was 17.3 percentage of total and the “Cell Cycle Distribution, sub G” value (HT29 cells; HT29, 250 μM, 18 h after 6Gy) was 10.3 percentage of total. The “Cell Cycle Distribution, G1” value (HT29 cells; HT29, 500 μM, 18 h after 6Gy) was 39.4 percentage of total, the “Cell Cycle Distribution, G2 + M” value (HT29 cells; HT29, 500 μM, 18 h after 6Gy) was 37.7 percentage of total and the “Cell Cycle Distribution, S” value (HT29 cells; HT29, 500 μM, 18 h after 6Gy) was 19.2 percentage of total. The “Cell Cycle Distribution, sub G” value (HT29 cells; HT29, 500 μM, 18 h after 6Gy) was 3.9 percentage of total, the Checkpoint remark (HT29 cells; HT29, 500 μM, 18 h after 6Gy) was “G2 abrogation” and the “Checkpoint abrogation” value (HT29 cells; HT29, 6 Gy) was “abrogation of the G2 checkpoint”. For the same compound, the “Cell Cycle Distribution, G1” value (HL60 cells; HL60, 50 μM, 18 h after 6Gy) was 6.2 percentage of total, the “Cell Cycle Distribution, G2 + M” value (HL60 cells; HL60, 50 μM, 18 h after 6Gy) was 82.3 percentage of total and the “Cell Cycle Distribution, S” value (HL60 cells; HL60, 50 μM, 18 h after 6Gy) was 2.8 percentage of total. The “Cell Cycle Distribution, sub G” value (HL60 cells; HL60, 50 μM, 18 h after 6Gy) was 8.9 percentage of total, the “Cell Cycle Distribution, G1” value (HL60 cells; HL60, 100 μM, 18 h after 6Gy) was 6.2 percentage of total and the “Cell Cycle Distribution, G2 + M” value (HL60 cells; HL60, 100 μM, 18 h after 6Gy) was 80.8 percentage of total. For the same compound, the “Cell Cycle Distribution, S” value (HL60 cells; HL60, 100 μM, 18 h after 6Gy) was 3.4 percentage of total, the “Cell Cycle Distribution, sub G” value (HL60 cells; HL60, 100 μM, 18 h after 6Gy) was 9.8 percentage of total and the “Cell Cycle Distribution, G1” value (HL60 cells; HL60, 250 μM, 18 h after 6Gy) was 5.8 percentage of total. For the same compound, the “Cell Cycle Distribution, G2 + M” value (HL60 cells; HL60, 250 μM, 18 h after 6Gy) was 82.2 percentage of total, the “Cell Cycle Distribution, S” value (HL60 cells; HL60, 250 μM, 18 h after 6Gy) was 3.1 percentage of total and the “Cell Cycle Distribution, sub G” value (HL60 cells; HL60, 250 μM, 18 h after 6Gy) was 9.3 percentage of total. The “Cell Cycle Distribution, G1” value (HL60 cells; HL60, 500 μM, 18 h after 6Gy) was 5.2 percentage of total, the “Cell Cycle Distribution, G2 + M” value (HL60 cells; HL60, 500 μM, 18 h after 6Gy) was 78.2 percentage of total and the “Cell Cycle Distribution, S” value (HL60 cells; HL60, 500 μM, 18 h after 6Gy) was 5.4 percentage of total. The “Cell Cycle Distribution, sub G” value (HL60 cells; HL60, 500 μM, 18 h after 6Gy) was 11.6 percentage of total, the Checkpoint remark (HL60 cells; HL60, 500 μM, 18 h after 6Gy) was “Cell Death” and the “Checkpoint abrogation” value (HL60 cells; HL60, 6 Gy) was “abrogated G1 arrest”. The “Cell Cycle Distribution, G1” value (L1210 cells; L1210, 50 μM, 18 h after 6Gy) was 21.2 percentage of total, the “Cell Cycle Distribution, G2 + M” value (L1210 cells; L1210, 50 μM, 18 h after 6Gy) was 50.3 percentage of total and the “Cell Cycle Distribution, S” value (L1210 cells; L1210, 50 μM, 18 h after 6Gy) was 28.5 percentage of total. The “Cell Cycle Distribution, sub G1” value (L1210 cells; L1210, 50 μM, 18 h after 6Gy) was 1.8 percentage of total, the “Cell Cycle Distribution, G1” value (L1210 cells; L1210, 100 μM, 18 h after 6Gy) was 22.0 percentage of total and the “Cell Cycle Distribution, G2 + M” value (L1210 cells; L1210, 100 μM, 18 h after 6Gy) was 49.7 percentage of total. The “Cell Cycle Distribution, S” value (L1210 cells; L1210, 100 μM, 18 h after 6Gy) was 27.4 percentage of total, the “Cell Cycle Distribution, sub G1” value (L1210 cells; L1210, 100 μM, 18 h after 6Gy) was 2.4 percentage of total and the “Cell Cycle Distribution, G1” value (L1210 cells; L1210, 250 μM, 18 h after 6Gy) was 21.2 percentage of total. The “Cell Cycle Distribution, G2 + M” value (L1210 cells; L1210, 250 μM, 18 h after 6Gy) was 52.7 percentage of total, the “Cell Cycle Distribution, S” value (L1210 cells; L1210, 250 μM, 18 h after 6Gy) was 24.6 percentage of total and the “Cell Cycle Distribution, sub G1” value (L1210 cells; L1210, 250 μM, 18 h after 6Gy) was 3.1 percentage of total. For the same compound, the “Cell Cycle Distribution, G1” value (L1210 cells; L1210, 500 μM, 18 h after 6Gy) was 18.2 percentage of total, the “Cell Cycle Distribution, G2 + M” value (L1210 cells; L1210, 500 μM, 18 h after 6Gy) was 61.8 percentage of total and the “Cell Cycle Distribution, S” value (L1210 cells; L1210, 500 μM, 18 h after 6Gy) was 16.0 percentage of total. For the same compound, the “Cell Cycle Distribution, sub G1” value (L1210 cells; L1210, 500 μM, 18 h after 6Gy) was 5.0 percentage of total, the Checkpoint remark (L1210 cells; L1210, 500 μM, 18 h after 6Gy) was “G1 abrogation” and the “Checkpoint abrogation” value (L1210 cells; L1210, 6 Gy) was “abrogated G1 arrest”. It also gave an IC50 (nine cancer cell lines; colon lines, read-out: IC50 range in human colon cancer cell lines) of 14 to 88 µM, an IC50 (nine cancer cell lines; leukaemia lines, read-out: IC50 range in leukaemia cells) of 393 to 680 µM and an IC50 (nine cancer cell lines; ovarian lines, read-out: IC50 range in ovarian cells) of 275 to 333 µM.
